In patent publication US20200016097A1, “Methods for Preventing and Treating Radiation-Induced Epithelial Disorders” (priority 2009, published 2020):

Tested on: IEC-18 cells
Assay: Repair of mechanically wounded IEC-18 monolayers
Assay type: cell-based, rat
Conditions: 5% PEG 15-20, 50 ng/ml EGF; after 24 hours
Experimental: In order to assess the ability of HMW PEG to induce the repair of epithelial monolayers following injury, IEC-18 cells were grown to confluency in 60 mm dishes, rinsed then the monolayer was mechanically wounded using a razor blade. Detached cells were removed and fresh medium containing 5% PEG 15-20, 50 ng/ml Epidermal Growth Factor (EGF) or a combination of both was added. The cells were maintained in the presence of treatment for 24 hours or were treated for 2 minutes, washed then incubated without treatment for 24 hours. Wound healing was assessed by the decrease in the length of the wound after 24 hours.

Substance: EGF: Epidermal Growth Factor, 50 ng/ml (NSDSECPLSHDGYCLHDGVCMYIEALDKYACNCVVGYIGERCQYRDLKWWELR; UniProt P01133 971-1023, looked up)
- wound healing (decrease in the length of the wound): induced wound healing
